Source: patent US20120046272A1, “Novel Therapeutic Compounds” (GRUNENTHAL GMBH, priority 2010, published 2012)

Test system: mice
Test: Hot plate model of acute thermal pain
Format: in vivo
Settings: hot plate 46.0° C.±1.0° C, tested prior to and 30 min after drug administration, cut-off 120 s
Procedure: The device consisted of an electrically heated surface and an open plexiglass tube (34 cm high×44 cm diameter), as per the hot plate test adapted from Eddy and Leimbach (1953); The animals were confined to the heated surface. The temperature was kept at 46.0° C.±1.0° C. Mice were placed on the hot plate, and the time, recorded with a stopwatch, until either licking of the hind paw or jumping were initiated. Animals were tested prior to and 30 min after drug administration. The pre-drug latencies were between 17 and 45 s. The maximum possible effect (MPE) was defined as the lack of a nociceptive response during the exposure to the heat stimulus. The percentage of MPE was calculated according to the formula: [(T1−T0)/(T2−T0)]×100, where T0 and T1 were the latencies obtained before and after drug injection, and T2 was the cut-off time (120 s).
Data are expressed as mean (±SEM) % MPE. p<0.05 versus vehicle control.

| SMILES | antinociception in hot plate test (% MPE) |
| --- | --- |
| CCC(c1cccc(OC(=O)CC2(CN)CCCCC2)c1)C(C)CN(C)C (centres unmarked) [Compound of Formula 25] | induced dose-dependent antinociception and reached full efficacy |
| CN1CC[C@]23c4c5ccc(O)c4O[C@H]2[C@@H](O)C=C[C@H]3[C@H]1C5 [morphine] | induced dose-dependent antinociception and reached full efficacy |
